Results: US10335364B2, “Composition for topical application comprising glycerol and tannins” (priority 2013, dated 2019)

What was measured:
[1] = test system: human multilayered epidermis; assay: Glycerol film retention on in vitro human multilayered epidermis (MTT cell viability); type: cell-based
Protocol: In the absence of any specific in vivo model to study the duration of the film retention by a biological surface, an in vitro model of human multilayered epidermis was used to evaluate the effects of the addition of non-cytotoxic concentrations of different PCD-rich plant extracts, either singly or in different associations, on glycerol film retention. Human epidermis was grown on a permeable polycarbonate filter (1 cm diameter) and was kept on a sponge soaked with culture medium, its outer surface remaining in contact with air, as is the case in vivo. Through capillary action, the culture medium diffuses through the polycarbonate filter and supplies nourishment to the epidermal cells to keep those cells alive.
Inserting one or two additional polycarbonate filters increases the distance between the culture medium and the cells; the amount of available medium, which reaches the cells, then decreases, and in absence of nutrients and hydration, the cells die. […] The percentage of live cells is proportional to the duration of retention of the glycerol film by the epidermal surface.
Various glycerol preparations containing test products (mainly PCD-rich plant extracts), at concentrations varying between 0.1 and 5.0%.
Quantity of Test Product Applied Per Epidermis: 20 μl
Glycerol preparations were directly applied on the epidermis as thin layer with the help of a pipette (n=6 per concentration): the epidermis was placed on two filters and the test product was applied on the epidermis surface. The filters were kept on a sponge, which was inserted in a petri dish containing an appropriate quantity of medium to nourish the cells. […]
The cell viability was scored as follows: • Score 4: 100% cells (compared to the controls) with intense blue color. • 3: Approximately 75% live cells with dark blue color. • 2: Approximately 50% live cells with medium blue color. • 1: Approximately 25% live cells with light blue color. • 0: No live cells, whitish epidermis color. […]

diabetic ulcers = conditions: human, in vivo
Protocol: Samples of wound fluid (100 μl) were collected at hourly intervals over a 6 h period, and the quantity of glycerol was measured.

[2] = test system: free virus particles present on the surface of labial herpes lesions; assay: Clinical study 3: free virus particles on labial herpes lesions (Tzank test); type: in vivo, human (patients); conditions: labial lesion smears, twice daily application
Protocol: Labial lesion smears were collected and mean virus concentration was measured by quantifying the number of multinucleated virus-infected giant cells in each lesion using Tzank test, and the mean amount of free virus particles was determined in both groups.

[3] = seawater containing […] NaCl; pure glycerol; cited from earlier work
[4] = Osmolality and osmotic pressure of glycerol and seawater; type: physicochemical; conditions: pure glycerol
Description: An injured skin or mucosa acts as a semi-permeable membrane and allows osmosis to occur. The flow of solvents across a semi-permeable membrane constitutes the osmotic flow or osmosis. The pressure required to achieve osmotic equilibrium is known as osmotic pressure. The higher the concentration of a […], the more osmotic pressure it exerts. Fresh water is considered isotonic with a density of 1000 kg/m^3. […] Osmotic pressure exerted by glycerol is nearly 10 times higher compared to seawater. The solute concentration of glycerol is also much higher compared to seawater. It is the total solute concentration in a solution that determines the osmotic flow of liquid, as osmosis is driven by differences in solute/solvent concentrations that exist across a semi-permeable membrane. The total solute concentration can be determined through the osmolality of the solution. […] Therefore, glycerol could have been a product of choice for application on infected surfaces in order to generate osmotic outflow of hypotonic liquid and to clean the injury. Unfortunately, the exudating hypotonic liquid immediately dilutes the glycerol and drains it from the wound surface within a few minutes, limiting these cleaning effects.

rat dorsal skin lesions = assay: In vivo rat wound healing; conditions: 0.2 ml per lesion for 7 consecutive days, filmogen glycerol as per the example N° 6
Protocol: The rat dorsal skin was shaved and 3 circular lesions, […] in diameter and depth, were made to the hypodermis with a dermatome. 0.2 ml of each test product was applied on each lesion for 7 consecutive days. Lesion diameter was measured every day and mean values were compared.

[5] = test system: human epidermis (normal human epithelial cells); assay: In vitro osmotic/hydrating properties on dehydrated human epidermis culture; type: cell-based; conditions: 20 μl, day 7, filmogen glycerol = preparation n° 2 in Example 5 (Orosol)
Description: In the absence of in vivo models to mimic the osmotic exudation of hypotonic liquid from the oral or vaginal mucosa, a cell culture model of human epidermis was used which contains normal human epithelial cells grown on a polycarbonate filter in an air/liquid phase. Under optimal conditions, a multilayered cell culture, equivalent to the mucosal surface is obtained on a polycarbonate support. This support is placed on a sponge in contact with a defined amount of culture medium. The medium diffuses into the sponge and the filter, and supplies nutrients as well as hydration to the cells. Under these conditions, the cell culture can be kept alive for at least a week.
To create an experimental model of mucosa dryness, we inserted one or two extra filters between the cells and the sponge, thereby reducing the amount of liquid medium available to the cells. In absence of hydration, cells die, and the cell mortality can be measured with a vital dye MU. Cell mortality is proportional to the culture surface's dryness. […]
The aim of this study was to evaluate the hydrating properties of filmogen glycerol compared to regular glycerol. […] Each epidermis was washed by stirring the culture in culture medium for 20 seconds on days 1, 3 and 5, and cell viability was measured on day 7 using MU staining.

[6] = test system: nasal sinus infection (rhinosinusitis); assay: Clinical study 4: rhinosinusitis; type: in vivo, human (patients)
Protocol: A 21-day controlled clinical trial of G-PCD compared to glycerol alone in patients suffering from acute symptoms of nasal sinus infection was performed.
The aim of this study was to evaluate the sinus-opening efficacy of G-PCD solution (32% glycerol, 1% plant PCDs in water) as per the example N° 5, compared to glycerol alone (32% glycerol in water). Among 127 patients suffering from acute and chronic sinusitis 109 were selected for the study. 58 patients were treated with G-PCD and 51 with glycerol. Products were administered as sprays (3 at each treatment application), 2-3 times per day for a maximum period of 21 days.
The parameters studied were: 1. Effect on nasal congestion and runny nose; 2. Effect on pain upon pressure around the nasal sinus surface; 3. Overall condition of the patient with respect to sinus infection; and 4. The influence on antibiotic therapy. […] Only 21% patients in the G-PCD group required antibiotic therapy for an average 7.41 days compared to 40% in the glycerol group for a period of 10.5 days (FIG. 8)

[7] = spray 2-3 times per day, glycerol = 32% glycerol in water

SMILES: OCC(O)CO [glycerol]
- cell survival % after 72 h ([1]; 20 μl on epidermis placed on two filters, 37° C., 5% CO2, 72 h, MTT): 23.85 (±4.8) %
- higher cell survival compared to the positive controls ([1]; 72 h, positive controls without product 6.32%): 17.53%
- cells die within 72 h ([1]; glycerol control, free of any PCD extract): 60-70%
- glycerol eliminated from the wound within 1 hour (diabetic ulcers; 1 h): ~92%
- glycerol eliminated from the wound within 2 hours (diabetic ulcers; 2 h): 100%
- mean amount of free virus particles, day 1 [2]: > 750
- mean amount of free virus particles, day 4 [2]: 635 (±17.51)
- mean amount of free virus particles, day 7 [2]: 542 (±22.35.)
- mean amount of free virus particles, day 14 [2]: 522 (±13.50)
- osmolality (total solute/mol wt/kg) [3]: 10.86 mols/kg
- osmotic activity compared to seawater [4]: ~18 times
- Mean lesion size (diameter/day/lesion during 7 days) (rat dorsal skin lesions): 2.95 cm^2
- Mean score of cell survival after 1-week culture, partially dehydrated cultures ([5]; 1 extra filter): 62.3%
- Mean score of cell survival after 1-week culture, severely dehydrated cultures ([5]; 2 extra filters): 43.15%
- patients requiring antibiotic therapy ([6]; 21-day trial): 40%
- average duration of antibiotic therapy ([6]; patients who required antibiotics): 10.5 days
- nasal congestion symptom change after 30 minutes [6, 7]: −20.40%
- nasal congestion symptom change after 3 days [6, 7]: −19.09%
- nasal congestion symptom change after 7 days [6, 7]: −30.25%
- overall rhinosinusitis condition change after 30 minutes [6, 7]: −22.56%
- overall rhinosinusitis condition change after 3 days [6, 7]: +3.52%
- overall rhinosinusitis condition change after 7 days [6, 7]: −17.62%
- sinus pain symptom change after 30 minutes [6, 7]: −1.69%
- sinus pain symptom change after 3 days [6, 7]: −8.36%
- sinus pain symptom change after 7 days [6, 7]: −53.36%
- increase in intensity of runny nose ([6]; within 30 minutes of first product administration): 31.71%
